Key:
EphB4(h) = EphB4(h) (Homo sapiens, UniProt P54760); experiment: KinaseProfiler kinase selectivity assay; assay type: biochemical
Method: (§1) All compounds were prepared to 50× final assay concentration in 100% DMSO. This working stock of the compound was added to the assay well as the first component in the reaction, followed by the remaining components. In the standard KinaseProfiler™ service, there is no pre-incubation step between the compound and the kinase prior to initiation of the reaction. The positive control wells contain all components of the reaction, except the compound of interest; however, DMSO (at a final concentration of 2%) is included in these wells to control for solvent effects. The blank wells contain all components of the reaction, with a reference inhibitor replacing the compound of interest. This abolishes kinase activity and establishes the base-line (0% kinase activity remaining).

AMPKα1(h) = AMPKα1(h) (Homo sapiens, UniProt Q13131); experiment: KinaseProfiler kinase selectivity assay; assay type: biochemical
Sequence of AMPKα1(h) (Q13131 whole entry): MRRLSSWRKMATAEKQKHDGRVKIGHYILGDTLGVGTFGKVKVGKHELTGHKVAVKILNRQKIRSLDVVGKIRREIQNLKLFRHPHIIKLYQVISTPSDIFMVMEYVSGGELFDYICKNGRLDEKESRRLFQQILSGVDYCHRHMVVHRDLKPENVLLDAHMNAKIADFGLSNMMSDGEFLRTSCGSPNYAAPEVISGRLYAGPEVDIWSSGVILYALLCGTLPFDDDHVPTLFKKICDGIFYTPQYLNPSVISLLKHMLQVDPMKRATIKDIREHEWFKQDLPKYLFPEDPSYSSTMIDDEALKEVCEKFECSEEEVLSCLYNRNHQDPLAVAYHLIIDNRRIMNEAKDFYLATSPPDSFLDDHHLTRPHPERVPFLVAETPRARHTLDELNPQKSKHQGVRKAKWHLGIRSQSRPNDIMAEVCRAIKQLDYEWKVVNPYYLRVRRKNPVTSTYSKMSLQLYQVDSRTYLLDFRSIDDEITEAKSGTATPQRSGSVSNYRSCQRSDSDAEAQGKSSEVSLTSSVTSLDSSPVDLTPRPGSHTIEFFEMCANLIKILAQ
Sequence of AMPKα1(h) (Q9Y478 whole entry partner): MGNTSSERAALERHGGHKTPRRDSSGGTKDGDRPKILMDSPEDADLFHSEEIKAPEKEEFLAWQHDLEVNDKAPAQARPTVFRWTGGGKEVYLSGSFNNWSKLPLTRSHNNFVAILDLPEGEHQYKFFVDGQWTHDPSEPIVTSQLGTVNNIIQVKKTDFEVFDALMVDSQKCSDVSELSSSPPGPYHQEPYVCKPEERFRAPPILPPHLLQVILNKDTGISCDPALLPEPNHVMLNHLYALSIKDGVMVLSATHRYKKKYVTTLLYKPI
Sequence of AMPKα1(h) (P54619 whole entry partner): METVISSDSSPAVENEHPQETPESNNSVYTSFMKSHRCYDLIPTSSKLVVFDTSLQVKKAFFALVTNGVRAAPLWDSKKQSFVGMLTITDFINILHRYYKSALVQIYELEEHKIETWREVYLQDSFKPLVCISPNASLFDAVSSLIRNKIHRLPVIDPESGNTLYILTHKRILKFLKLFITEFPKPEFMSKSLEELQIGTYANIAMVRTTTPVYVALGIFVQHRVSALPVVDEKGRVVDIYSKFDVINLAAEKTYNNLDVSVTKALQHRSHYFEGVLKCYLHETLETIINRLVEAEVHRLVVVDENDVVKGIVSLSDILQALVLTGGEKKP
Method: as §1

PKCα(h) = PKCα(h) (Homo sapiens, UniProt P17252); experiment: KinaseProfiler kinase selectivity assay; assay type: biochemical
Method: as §1

Rse(h) = Rse(h) (Homo sapiens, UniProt Q06418); experiment: KinaseProfiler kinase selectivity assay; assay type: biochemical
Sequence of Rse(h) (Q06418 41-890): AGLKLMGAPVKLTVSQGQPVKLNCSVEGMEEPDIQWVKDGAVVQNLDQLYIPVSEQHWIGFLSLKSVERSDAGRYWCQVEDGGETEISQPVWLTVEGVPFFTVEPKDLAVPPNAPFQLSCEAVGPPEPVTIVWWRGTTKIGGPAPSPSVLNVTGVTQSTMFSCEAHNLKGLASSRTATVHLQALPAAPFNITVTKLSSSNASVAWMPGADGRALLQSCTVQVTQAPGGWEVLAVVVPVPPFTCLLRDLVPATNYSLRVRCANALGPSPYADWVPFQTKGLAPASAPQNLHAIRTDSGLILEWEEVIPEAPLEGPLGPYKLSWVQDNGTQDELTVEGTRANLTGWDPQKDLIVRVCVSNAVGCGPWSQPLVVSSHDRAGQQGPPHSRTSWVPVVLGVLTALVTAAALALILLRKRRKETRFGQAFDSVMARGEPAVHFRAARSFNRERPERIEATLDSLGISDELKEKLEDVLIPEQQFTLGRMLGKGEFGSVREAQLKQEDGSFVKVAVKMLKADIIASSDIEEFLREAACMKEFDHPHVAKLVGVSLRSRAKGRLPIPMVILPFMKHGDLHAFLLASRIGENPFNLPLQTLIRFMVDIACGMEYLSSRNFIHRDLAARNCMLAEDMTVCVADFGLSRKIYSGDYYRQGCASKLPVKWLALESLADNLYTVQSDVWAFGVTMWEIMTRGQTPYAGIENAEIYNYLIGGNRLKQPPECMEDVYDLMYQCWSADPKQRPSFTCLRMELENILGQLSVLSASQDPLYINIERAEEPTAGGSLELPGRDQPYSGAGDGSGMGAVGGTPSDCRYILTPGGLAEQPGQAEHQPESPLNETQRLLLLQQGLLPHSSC
Method: as §1

EGFR(h) = EGFR(h) (Homo sapiens, UniProt P00533); experiment: KinaseProfiler kinase selectivity assay; assay type: biochemical
Method: as §1

c-RAF(h) = c-RAF(h) (Homo sapiens, UniProt P04049); experiment: KinaseProfiler kinase selectivity assay; assay type: biochemical
Method: as §1

KDR(h) = KDR(h) (Homo sapiens, UniProt P35968); experiment: KinaseProfiler kinase selectivity assay; assay type: biochemical
Method: as §1

MEK1(h) = MEK1(h) (Homo sapiens, UniProt Q02750); experiment: KinaseProfiler kinase selectivity assay; assay type: biochemical
Method: as §1

CK1γ1(h) = CK1γ1(h) (Homo sapiens, UniProt Q9HCP0); experiment: KinaseProfiler kinase selectivity assay; assay type: biochemical
Method: as §1

PKBα(h) = PKBα(h) (Homo sapiens, UniProt P31749); experiment: KinaseProfiler kinase selectivity assay; assay type: biochemical
Sequence of PKBα(h) (P31749 whole entry): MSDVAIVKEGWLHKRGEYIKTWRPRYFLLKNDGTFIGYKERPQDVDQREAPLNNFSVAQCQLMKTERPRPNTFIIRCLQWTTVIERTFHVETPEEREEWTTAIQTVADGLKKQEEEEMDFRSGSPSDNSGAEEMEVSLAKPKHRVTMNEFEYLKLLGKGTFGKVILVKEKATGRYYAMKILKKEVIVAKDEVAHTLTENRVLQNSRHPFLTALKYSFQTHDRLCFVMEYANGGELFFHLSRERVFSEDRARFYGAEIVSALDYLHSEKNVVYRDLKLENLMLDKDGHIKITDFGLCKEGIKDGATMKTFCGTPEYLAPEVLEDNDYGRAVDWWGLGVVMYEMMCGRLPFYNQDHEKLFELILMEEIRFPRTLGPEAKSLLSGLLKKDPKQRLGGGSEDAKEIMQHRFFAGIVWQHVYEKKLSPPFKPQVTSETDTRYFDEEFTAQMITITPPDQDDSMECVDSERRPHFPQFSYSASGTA
Method: as §1

NEK2(h) = NEK2(h) (Homo sapiens, UniProt P51955); experiment: KinaseProfiler kinase selectivity assay; assay type: biochemical
Sequence of NEK2(h) (P51955 whole entry): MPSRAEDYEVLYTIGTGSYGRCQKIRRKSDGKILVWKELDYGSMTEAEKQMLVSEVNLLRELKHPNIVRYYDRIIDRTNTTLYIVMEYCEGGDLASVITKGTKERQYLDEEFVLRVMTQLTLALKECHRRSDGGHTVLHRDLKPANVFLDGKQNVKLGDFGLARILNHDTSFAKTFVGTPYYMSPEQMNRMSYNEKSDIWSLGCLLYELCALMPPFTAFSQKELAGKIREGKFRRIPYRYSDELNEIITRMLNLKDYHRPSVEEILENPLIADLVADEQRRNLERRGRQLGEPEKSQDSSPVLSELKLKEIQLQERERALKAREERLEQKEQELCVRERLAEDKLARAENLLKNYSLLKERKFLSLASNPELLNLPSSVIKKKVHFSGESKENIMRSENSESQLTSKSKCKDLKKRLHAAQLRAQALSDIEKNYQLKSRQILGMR
Method: as §1

Lyn(h) = Lyn(h) (Homo sapiens, UniProt P07948); experiment: KinaseProfiler kinase selectivity assay; assay type: biochemical
Method: as §1

IKKα(h) = IKKα(h) (Homo sapiens, UniProt O15111); experiment: KinaseProfiler kinase selectivity assay; assay type: biochemical
Sequence of IKKα(h) (O15111 whole entry): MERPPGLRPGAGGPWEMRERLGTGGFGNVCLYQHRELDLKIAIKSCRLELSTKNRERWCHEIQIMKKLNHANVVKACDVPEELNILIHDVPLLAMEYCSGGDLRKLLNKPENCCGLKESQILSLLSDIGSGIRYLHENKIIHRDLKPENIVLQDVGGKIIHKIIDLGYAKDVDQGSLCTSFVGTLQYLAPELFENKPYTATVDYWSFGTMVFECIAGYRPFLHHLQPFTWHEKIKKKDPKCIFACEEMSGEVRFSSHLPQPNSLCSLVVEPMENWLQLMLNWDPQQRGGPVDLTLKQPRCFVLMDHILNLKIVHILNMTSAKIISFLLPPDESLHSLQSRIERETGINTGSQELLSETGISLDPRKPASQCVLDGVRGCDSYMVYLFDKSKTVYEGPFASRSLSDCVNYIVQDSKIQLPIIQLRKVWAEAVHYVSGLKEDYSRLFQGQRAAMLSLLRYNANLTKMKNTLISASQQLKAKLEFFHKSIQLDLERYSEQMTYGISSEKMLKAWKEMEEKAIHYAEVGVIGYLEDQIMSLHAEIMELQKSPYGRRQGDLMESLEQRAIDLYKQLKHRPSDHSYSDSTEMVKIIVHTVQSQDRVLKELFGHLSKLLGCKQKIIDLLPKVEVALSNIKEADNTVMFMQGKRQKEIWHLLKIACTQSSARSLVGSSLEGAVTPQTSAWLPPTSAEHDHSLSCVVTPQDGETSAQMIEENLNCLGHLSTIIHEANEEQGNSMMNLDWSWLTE
Method: as §1

CDK9/cyclin T1(h) = CDK9/cyclin T1(h) (Homo sapiens, UniProt P50750); experiment: KinaseProfiler kinase selectivity assay; assay type: biochemical
Method: as §1

[1] = test system: BALB/c-3T3 mouse fibroblasts; experiment: 3T3 neutral red uptake phototoxicity assay; assay type: cell-based; settings: mouse, 24 h
Method: Therefore, the compounds of the present disclosure were screened for phototoxicity using the 3T3 natural red uptake assay.
In brief, BALB/c-3T3 mouse fibroblasts (originally obtained from ATCC) were seeded in 96-well plates at 12,000 cells per well, and grown for 24 hr. Test compounds and the positive control (chlorpromazine) were solubilized and serially diluted in DMSO. The negative control (histidine) was solubilized and diluted in HBSS. A dilution for all test articles was then made into HBSS at the final testing concentrations. At the start of the assay, the growth medium was removed from the plates and replaced with test agent dilution. Six replicates were used for each concentration. Cells were incubated in the dark with test article for 1 h, exposed to UVA light (2.5 J/cm2 over 18 min) and incubated 24 hrs. in the dark. A parallel non-irradiated plate was treated similarly, except it was stored in the dark, rather than illuminated.
For Neutral Red staining, medium was removed and fresh medium containing 25 μg/mL of Neutral Red (Sigma) was added. After three hours incubation, the cells were washed with PBS, and the cellular dye was solubilized with 1% acetic acid in 50% ethanol. Cellular Neutral Red was measured by its absorbance at 540 nm.
Data analysis: An IC50 (concentration that causes 50% reduction in viability) was calculated for each condition by linear interpolation.
A Photo-Irritation Factor (PIF) was calculated: PIF=IC50(−Irr)/IC50(+Irr)
PIF>5 indicates phototoxicity; 2<PIF<5 indicates probable phototoxicity; PIF<2 indicates no phototoxicity
In addition, the Mean Photo Effect (MPE) was calculated by comparison of the complete concentration-response curves. MPE is a weighted average of the difference in response of equivalent doses normalized by the shift in IC50.
MPE>0.15 indicates phototoxicity; 0.1<MPE<0.15 indicates probable phototoxicity; MPE<0.1 indicates no phototoxicity.

[2] = test system: ERK phosphorylation in HEKa cells; experiment: phospho-ERK in HEKa cells following EGFR inhibitors (Western blot); assay type: cell-based, human
Method: Human normal keratinocyte cells HEKa were purchased from Gibco Rhenium and seeded in 10 cm dishes (300,000 cells/dish) and incubated overnight at 37° C., 5% CO2. Next morning, the medium was replaced to a starvation medium for 2 hours and then the cells were treated for 2 additional hours with the test compounds. Post incubation, the cells were lyzed with RIPA and the protein extracts were analyzed by western blot for Phospho-ERK and total ERK. Untreated cells and 0.1% DMSO treated cells were used as negative control. HKGS growth factors was used as a positive control.
Western blot: 7.5 μg of total extract was loaded on 10% acrylamide gel. Following transfer, the membranes were blocked with TBST/5% skimmed milk and then incubated with Mouse anti Phospho-ERK (1:1000 in TBST 5% BSA, ON at 4° C.) and goat anti Mouse HRP (1:10,000 in TBST 5% BSA, 1-hour RT). The membranes were exposed using SuperSignal West Pico Chemiluminescent Substrate.
The HRP was then inactivated by incubating the membranes for 1 hour with 0.5% sodium azide Following washes and ECL exposure in order to ensure absence of signal, the membranes were re-blocked for 15 min with TBST/5% skimmed milk and then incubated with Rabbit anti total ERK2 (1:500 in TBST 5% BSA, ON at 4° C.), goat anti Rabbit HRP (1:5,000 in TBST 5% BSA, 1-hour RT) and finally exposed using the SuperSignal West Pico Chemiluminescent Substrate. The films were scanned and the signal were quantified using ImageJ software. The results were calculated as Phospho-ERK/total ERK.
HKGS was used as a positive control.

Sequence of EphB4(h) (P54760 16-987): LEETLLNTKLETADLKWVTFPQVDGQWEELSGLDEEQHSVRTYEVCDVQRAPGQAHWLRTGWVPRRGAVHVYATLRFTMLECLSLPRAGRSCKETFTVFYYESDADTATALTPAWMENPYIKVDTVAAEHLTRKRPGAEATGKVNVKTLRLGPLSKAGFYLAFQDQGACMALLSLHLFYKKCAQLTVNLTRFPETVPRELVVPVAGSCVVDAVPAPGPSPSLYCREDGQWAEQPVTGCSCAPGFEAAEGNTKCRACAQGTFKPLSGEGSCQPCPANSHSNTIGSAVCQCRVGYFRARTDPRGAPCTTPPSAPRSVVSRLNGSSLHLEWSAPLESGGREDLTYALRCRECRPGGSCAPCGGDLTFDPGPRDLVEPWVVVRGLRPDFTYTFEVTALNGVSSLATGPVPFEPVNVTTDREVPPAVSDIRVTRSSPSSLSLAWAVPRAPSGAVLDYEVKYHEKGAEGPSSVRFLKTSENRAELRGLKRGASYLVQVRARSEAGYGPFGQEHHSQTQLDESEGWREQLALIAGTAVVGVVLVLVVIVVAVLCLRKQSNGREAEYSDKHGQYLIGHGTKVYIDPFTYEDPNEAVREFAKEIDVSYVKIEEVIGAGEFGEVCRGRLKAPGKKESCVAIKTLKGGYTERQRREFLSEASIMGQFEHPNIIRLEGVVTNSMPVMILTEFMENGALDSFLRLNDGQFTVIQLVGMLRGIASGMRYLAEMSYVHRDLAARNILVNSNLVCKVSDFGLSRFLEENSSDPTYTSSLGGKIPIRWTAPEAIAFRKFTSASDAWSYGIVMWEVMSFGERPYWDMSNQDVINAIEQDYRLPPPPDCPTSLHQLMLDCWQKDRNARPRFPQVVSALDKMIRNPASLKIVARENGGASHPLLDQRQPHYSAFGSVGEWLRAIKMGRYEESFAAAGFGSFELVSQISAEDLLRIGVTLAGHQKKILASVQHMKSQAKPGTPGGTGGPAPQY

Structure (SMILES): Cc1ccc2c(Nc3cccc(OC(F)(F)F)c3)nccc2c1Nc1ncccc1-c1ncnc2[nH]cnc12 [LUT014]
- remaining activity at 0.01 µM (EphB4(h); Lut014 @ 0.01 μM): 93%
- remaining activity at 1 µM (EphB4(h); Lut014 @ 1 μM): 38%
- remaining activity at 0.01 µM (AMPKα1(h); Lut014 @ 0.01 μM): 106%
- remaining activity at 1 µM (AMPKα1(h); Lut014 @ 1 μM): 114%
- remaining activity at 0.01 µM (PKCα(h); Lut014 @ 0.01 μM): 102%
- remaining activity at 1 µM (PKCα(h); Lut014 @ 1 μM): 107%
- remaining activity at 0.01 µM (Rse(h); Lut014 @ 0.01 μM): 106%
- remaining activity at 1 µM (Rse(h); Lut014 @ 1 μM): 113%
- remaining activity at 0.01 µM (EGFR(h); Lut014 @ 0.01 μM): 98%
- remaining activity at 1 µM (EGFR(h); Lut014 @ 1 μM): 100%
- remaining activity at 0.01 µM (c-RAF(h); Lut014 @ 0.01 μM): 105%
- remaining activity at 1 µM (c-RAF(h); Lut014 @ 1 μM): 30%
- remaining activity at 0.01 µM (KDR(h); Lut014 @ 0.01 μM): 96%
- remaining activity at 1 µM (KDR(h); Lut014 @ 1 μM): 79%
- remaining activity at 0.01 µM (MEK1(h); Lut014 @ 0.01 μM): 98%
- remaining activity at 1 µM (MEK1(h); Lut014 @ 1 μM): 105%
- remaining activity at 0.01 µM (CK1γ1(h); Lut014 @ 0.01 μM): 94%
- remaining activity at 1 µM (CK1γ1(h); Lut014 @ 1 μM): 101%
- remaining activity at 0.01 µM (PKBα(h); Lut014 @ 0.01 μM): 102%
- remaining activity at 1 µM (PKBα(h); Lut014 @ 1 μM): 105%
- remaining activity at 0.01 µM (NEK2(h); Lut014 @ 0.01 μM): 98%
- remaining activity at 1 µM (NEK2(h); Lut014 @ 1 μM): 125%
- remaining activity at 0.01 µM (Lyn(h); Lut014 @ 0.01 μM): 101%
- remaining activity at 1 µM (Lyn(h); Lut014 @ 1 μM): 46%
- remaining activity at 0.01 µM (IKKα(h); Lut014 @ 0.01 μM): 105%
- remaining activity at 1 µM (IKKα(h); Lut014 @ 1 μM): 105%
- remaining activity at 0.01 µM (CDK9/cyclin T1(h); Lut014 @ 0.01 μM): 110%
- remaining activity at 1 µM (CDK9/cyclin T1(h); Lut014 @ 1 μM): 98%
- phototoxicity (3T3 NRU), stated in words [1]: Lut014 is classified as non-phototoxic
- increase of phospho-ERK compared to the DMSO treated cells [2]: 200-800%
- phospho-ERK when added to cells treated with Erlotinib [2]: increased
- phospho-ERK when added to cells treated with cetuximab [2]: increased

— patent publication US11339163B2, “BRaf inhibitors and use thereof for treatment of cutaneous reactions” (Lutris Pharma Ltd., priority 2017, dated 2022)
